This assay addresses PIK3CA (human) (UniProt P42336). In words: Inhibition of PIK3CA Kinase Activity.

Sequence of PIK3CA (human) (P42336 whole entry, looked up): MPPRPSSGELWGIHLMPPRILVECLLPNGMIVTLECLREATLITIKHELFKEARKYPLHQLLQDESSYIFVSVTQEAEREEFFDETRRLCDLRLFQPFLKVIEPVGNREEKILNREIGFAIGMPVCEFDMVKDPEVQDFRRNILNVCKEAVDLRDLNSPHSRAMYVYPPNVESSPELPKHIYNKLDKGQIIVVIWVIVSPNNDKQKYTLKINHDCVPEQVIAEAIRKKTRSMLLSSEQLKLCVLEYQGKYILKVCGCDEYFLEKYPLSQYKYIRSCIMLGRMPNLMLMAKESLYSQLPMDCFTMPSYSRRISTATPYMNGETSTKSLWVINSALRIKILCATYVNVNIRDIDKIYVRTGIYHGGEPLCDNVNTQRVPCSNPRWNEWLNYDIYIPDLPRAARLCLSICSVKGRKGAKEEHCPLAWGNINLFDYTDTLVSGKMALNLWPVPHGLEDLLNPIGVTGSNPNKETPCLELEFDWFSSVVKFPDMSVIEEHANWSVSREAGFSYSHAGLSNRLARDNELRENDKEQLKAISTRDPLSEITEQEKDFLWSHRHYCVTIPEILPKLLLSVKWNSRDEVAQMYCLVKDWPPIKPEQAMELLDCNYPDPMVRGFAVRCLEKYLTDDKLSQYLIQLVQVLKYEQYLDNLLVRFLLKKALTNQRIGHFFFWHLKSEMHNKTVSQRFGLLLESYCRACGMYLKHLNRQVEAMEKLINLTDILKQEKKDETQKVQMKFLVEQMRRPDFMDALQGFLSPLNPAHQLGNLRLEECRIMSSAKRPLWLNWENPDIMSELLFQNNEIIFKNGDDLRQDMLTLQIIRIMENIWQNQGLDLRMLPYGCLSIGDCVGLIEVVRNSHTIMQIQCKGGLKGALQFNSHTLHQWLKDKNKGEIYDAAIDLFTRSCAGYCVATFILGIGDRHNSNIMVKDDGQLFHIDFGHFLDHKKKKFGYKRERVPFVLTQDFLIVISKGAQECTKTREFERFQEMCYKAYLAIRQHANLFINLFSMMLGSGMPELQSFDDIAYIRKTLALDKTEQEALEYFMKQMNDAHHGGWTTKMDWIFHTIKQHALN

What is called IC50 is the concentration needed to halve the response being measured. In turn, `Cc1ccc(C(=O)N2CCC(n3cnc4c(-c5cnc(N)nc5)nc(N5CCOCC5)nc43)C2)s1` (configuration not stated) showed a concentration for half-maximal inhibition (IC50) below 1 µM. Next, `CCC(C)n1c(S(C)(=O)=O)nc2c(-c3cccc(O)c3)nc(N3CCOCC3)nc21` (configuration not stated): below 1 µM; `CC(C1CC1)n1cnc2c(-c3cnc(N)nc3)nc(N3CCOCC3)nc21` (configuration not stated): below 1 µM; `CCC(C)n1c(NCCN(C)C)nc2c(-c3cccc(O)c3)nc(N3CCOCC3)nc21` (configuration not stated): below 1 µM. Next, `Nc1ccc(Cn2cnc3c(-c4cccc(O)c4)nc(N4CCOCC4)nc32)cc1`: below 1 µM.

Consider `CCC(C)n1c(Cl)nc2c(-c3cccc(O)c3)nc(N3CCOCC3)nc21` (configuration not stated), for which the IC50 was below 1 µM. Next, `CCC(C)n1cnc2c(-c3cnc(NC)nc3)nc(N3CCOCC3)nc21` (configuration not stated): below 1 µM; `COc1cc(Cn2cnc3c(-c4cccc(O)c4)nc(N4CCOCC4)nc32)cc(OC)c1`: below 1 µM; `CC(=O)Nc1ccc(Cn2cnc3c(-c4cccc(O)c4)nc(N4CCOCC4)nc32)cc1`: below 1 µM.

Take `Nc1ncc(-c2nc(N3CCOCC3)nc3c2ncn3C2CCN(C(=O)c3ccccc3)C2)cn1` (configuration not stated): the IC50 is below 1 µM. To `CC(C)Cn1cnc2c(-c3cccc(O)c3)nc(N3CCOCC3)nc21` belongs below 1 µM. Next, `c1cc(-c2nc(N3CCOCC3)nc3c2ncn3CC2CCCCC2)c2cc[nH]c2c1`: below 1 µM. Next, `CCCC(=O)N1CCC(n2cnc3c(-c4cnc(N)nc4)nc(N4CCOCC4)nc32)CC1`: below 1 µM. Take `CC(C)(C)CC(=O)N1CCC(n2cnc3c(-c4cccc5[nH]ccc45)nc(N4CCOCC4)nc32)CC1`: the IC50 was below 1 µM. Next, `CCC(C)n1cnc2c(-c3cccc(O)c3)nc(N3CCOCC3)nc21` (configuration not stated): below 1 µM; `Oc1cccc(-c2nc(N3CCOCC3)nc3c2ncn3Cc2cc(F)cc(F)c2)c1`: below 1 µM. Next, `Nc1ncc(-c2nc(N3CCOCC3)nc3c2ncn3C2Cc3ccccc3C2)cn1`: below 1 µM; `O=C(Cn1cnc2c(-c3cccc(O)c3)nc(N3CCOCC3)nc21)NC1CC1`: below 1 µM. To `Cc1nc(N)ncc1-c1nc(N2CCOCC2)nc2c1ncn2C(C)c1ccccc1` (configuration not stated) belongs below 1 µM. Consider `CCC(C#N)n1cnc2c(-c3cccc4[nH]ccc34)nc(N3CCOCC3)nc21` (configuration not stated), for which the IC50 was below 1 µM. Next, `Oc1cc(F)cc(-c2nc(N3CCOCC3)nc3c2ncn3Cc2ccccc2)c1`: below 1 µM. In the case of `CCC(C)n1cnc2c(-c3cccc4[nH]ncc34)nc(N3CCOCC3)nc21` (configuration not stated), the IC50 is below 1 µM. Next, `N#Cc1cccc(Cn2cnc3c(-c4cccc(O)c4)nc(N4CCOCC4)nc32)c1`: below 1 µM.

Compound `Oc1cccc(-c2nc(N3CCOCC3)nc3c2ncn3CCN2CCCC2)c1` gave an IC50 below 1 µM. Next, `COCC(C)n1cnc2c(-c3cnc(N)nc3)nc(N3CCOCC3)nc21` (configuration not stated): below 1 µM.

Regarding `CC(C)C(C)n1cnc2c(-c3ccc(N)nc3)nc(N3CCOCC3)nc21` (configuration not stated), the IC50 was below 1 µM. Next, `c1cc(-c2nc(N3CCOCC3)nc3c2ncn3C2CCOC2)c2cc[nH]c2c1` (configuration not stated): below 1 µM.

With `Cc1nc(N)ncc1-c1nc(N2CCOCC2)nc2c1ncn2C(C)C1CC1` (configuration not stated), the IC50 is below 1 µM. To `CCC(C)n1cnc2c(-c3cnc(N)nc3C)nc(N3CCOCC3)nc21` (configuration not stated) belongs below 1 µM; to `COCC(C)n1cnc2c(-c3ccc(N)nc3)nc(N3CCOCC3)nc21` (configuration not stated), below 1 µM. To `CCC(C#N)n1cnc2c(-c3cnc(N)nc3)nc(N3CCOCC3)nc21` (configuration not stated) belongs below 1 µM; to `Cc1ccc(C(=O)N2CCC(n3cnc4c(-c5cccc6[nH]ccc56)nc(N5CCOCC5)nc43)CC2)s1`, below 1 µM. To `Nc1ncc(-c2nc(N3CCOCC3)nc3c2ncn3CC2CC2)cn1` belongs below 1 µM; to `CCC(C)n1cnc2c(-c3ccc(N)nc3)nc(N3CCOCC3)nc21` (configuration not stated), below 1 µM.

`COc1ccc(Cn2cnc3c(-c4cccc(O)c4)nc(N4CCOCC4)nc32)cc1`: the IC50 is below 1 µM. To `COc1nc(N)ncc1-c1nc(N2CCOCC2)nc2c1ncn2C(C)C1CC1` (configuration not stated) belongs below 1 µM.

In turn, `c1cc(-c2nc(N3CCOCC3)nc3c2ncn3C2CCNCC2)c2cc[nH]c2c1` displayed an IC50 below 1 µM. Compound `Oc1cccc(-c2nc(N3CCOCC3)nc3[nH]c(Br)nc23)c1` yielded a 50% inhibitory concentration (IC50) below 1 µM. Next, `Nc1ccc(-c2nc(N3CCOCC3)nc3c2ncn3C2CCCC2)cn1`: below 1 µM; `Oc1cccc(-c2nc(N3CCOCC3)nc3c2ncn3C2CCOC2)c1` (configuration not stated): below 1 µM; `CC(C1CC1)n1cnc2c(-c3cccc(O)c3)nc(N3CCOCC3)nc21` (configuration not stated): below 1 µM.

`Nc1ncc(-c2nc(N3CCOCC3)nc3c2ncn3C2CCCC2)cn1` registered an IC50 below 1 µM. Next, `CC(c1ccccc1)n1cnc2c(-c3cnc(N)nc3)nc(N3CCOCC3)nc21` (configuration not stated): below 1 µM. Next, `c1cc(-c2nc(N3CCOCC3)nc3c2ncn3C2CCCC2)c2cc[nH]c2c1`: below 1 µM. The compound `CC(=O)Nc1cccc(Cn2cnc3c(-c4cccc(O)c4)nc(N4CCOCC4)nc32)c1` came in with an IC50 below 1 µM.

The compound `CCCCN1CCC(n2cnc3c(-c4cccc(O)c4)nc(N4CCOCC4)nc32)CC1` registered an IC50 below 1 µM. To `CC(=O)Nc1ccc(Cn2cnc3c(-c4cccc(OC(C)=O)c4)nc(N4CCOCC4)nc32)cc1` belongs below 1 µM. To `Oc1cccc(-c2nc(N3CCOCC3)nc3c2ncn3CCOc2ccccc2)c1` belongs below 1 µM; to `CCC(C)n1c(NC(C)C)nc2c(-c3cccc(O)c3)nc(N3CCOCC3)nc21` (configuration not stated), below 1 µM; to `COC(=O)c1ccc(Cn2cnc3c(-c4cccc(O)c4)nc(N4CCOCC4)nc32)cc1`, below 1 µM.

For the compound `CN1CCN(C(=O)Cn2cnc3c(-c4cccc(O)c4)nc(N4CCOCC4)nc32)CC1`, the IC50 is below 1 µM.

With `COc1cccc(Cn2cnc3c(-c4cccc(O)c4)nc(N4CCOCC4)nc32)c1`, the IC50 was below 1 µM. Next, `CCC(C)n1c(N2CCCC2)nc2c(-c3cccc(O)c3)nc(N3CCOCC3)nc21` (configuration not stated): below 1 µM. Next, `c1ccc(Cn2cnc3c(-c4cncnc4)nc(N4CCOCC4)nc32)cc1`: below 1 µM. Next, `Nc1ncc(-c2nc(N3CCOCC3)nc3[nH]cnc23)cn1`: below 1 µM.

Take `Nc1ncc(-c2nc(N3CCOCC3)nc3c2ncn3Cc2c(F)cccc2F)cn1`: the IC50 is below 1 µM. Compound `Oc1cccc(-c2nc(N3CCOCC3)nc3c2ncn3C2CCCC2)c1` registered an IC50 below 1 µM. `CCNc1ccc(Cn2cnc3c(-c4cccc(O)c4)nc(N4CCOCC4)nc32)cc1`: the IC50 is below 1 µM. Next, `Nc1ncc(-c2nc(N3CCOCC3)nc3c2ncn3C2CCOC2)cn1` (configuration not stated): below 1 µM; `CS(=O)(=O)N1CCN(C(=O)Cn2cnc3c(-c4cccc(O)c4)nc(N4CCOCC4)nc32)CC1`: below 1 µM. Next, `CC(C)(C)OC(=O)N1CCC(n2cnc3c(-c4cccc(O)c4)nc(N4CCOCC4)nc32)CC1`: below 1 µM; `c1nc2cc(-c3nc(N4CCOCC4)nc4c3ncn4CC3CC3)ccc2[nH]1`: below 1 µM; `COCCn1cnc2c(-c3cccc(O)c3)nc(N3CCOCC3)nc21`: below 1 µM.

As to `O=C(CCN1CCCCC1)Nc1ccc(Cn2cnc3c(-c4cccc(O)c4)nc(N4CCOCC4)nc32)cc1`, the IC50 is below 1 µM. To `N#CCn1cnc2c(-c3cccc(O)c3)nc(N3CCOCC3)nc21` belongs below 1 µM. Next, `Nc1ncc(-c2nc(N3CCOCC3)nc3c2ncn3C2CCc3ccccc3C2)cn1` (configuration not stated): below 1 µM; `CC(C)n1cnc2c(-c3cccc4[nH]ccc34)nc(N3CCOCC3)nc21`: below 1 µM. `CC1CCC(n2cnc3c(-c4cccc(O)c4)nc(N4CCOCC4)nc32)CC1` (configuration not stated): the IC50 was below 1 µM. To `CC(C)C(C)n1cnc2c(-c3cnc(N)nc3)nc(N3CCOCC3)nc21` (configuration not stated) belongs below 1 µM; to `CCCCNc1nc2c(-c3cccc(O)c3)nc(N3CCOCC3)nc2n1C(C)CC` (configuration not stated), below 1 µM.

Regarding `CC(C)(C)Cn1cnc2c(-c3cnc(N)nc3)nc(N3CCOCC3)nc21`, the IC50 is below 1 µM. Next, `Cc1cccc(-n2cnc3c(-c4cccc(O)c4)nc(N4CCOCC4)nc32)c1`: below 1 µM. Next, `CS(=O)(=O)N1CCC(n2cnc3c(-c4cccc5[nH]ccc45)nc(N4CCOCC4)nc32)CC1`: below 1 µM; `Nc1cccc(Cn2cnc3c(-c4cccc(O)c4)nc(N4CCOCC4)nc32)c1`: below 1 µM. To `COCC(C)n1cnc2c(-c3cccc(O)c3)nc(N3CCOCC3)nc21` (configuration not stated) belongs below 1 µM; to `CCC(C)n1c(Br)nc2c(-c3cccc(O)c3)nc(N3CCOCC3)nc21` (configuration not stated), below 1 µM.

Consider `CCc1nc2c(-c3cccc(O)c3)nc(N3CCOCC3)nc2n1C(C)CC` (configuration not stated), for which the IC50 was below 1 µM. To `COCCn1cnc2c(-c3cccc4[nH]ccc34)nc(N3CCOCC3)nc21` belongs below 1 µM; to `CCC(C)n1cnc2c(-c3cccc4[nH]ccc34)nc(N3CCOCC3)nc21` (configuration not stated), below 1 µM. For the compound `CCC(C)n1cnc2c(-c3cnc(N)nc3OC)nc(N3CCOCC3)nc21` (configuration not stated), the IC50 was below 1 µM. To `Nc1ncc(-c2nc(N3CCOCC3)nc3c2ncn3-c2ccccc2)cn1` belongs below 1 µM.

`C=CCCn1cnc2c(-c3cccc(O)c3)nc(N3CCOCC3)nc21` displayed an IC50 below 1 µM. `CCC(CC)n1cnc2c(-c3ccc(N)nc3)nc(N3CCOCC3)nc21`: the IC50 is below 1 µM. Consider `CC(C)n1cnc2c(-c3ccc(N)nc3)nc(N3CCOCC3)nc21`, for which the IC50 was below 1 µM. As for `CCNc1nc2c(-c3cccc(O)c3)nc(N3CCOCC3)nc2n1C(C)CC` (configuration not stated), the IC50 was below 1 µM.

Compound `c1cc(-c2nc(N3CCOCC3)nc3c2ncn3CCC2OCCCO2)c2cc[nH]c2c1` had an IC50 below 1 µM.

In the case of `Oc1cccc(-c2nc(N3CCOCC3)nc3c2ncn3Cc2c(F)cccc2F)c1`, the IC50 was below 1 µM. As for `CC1CCC(n2cnc3c(-c4cnc(N)nc4)nc(N4CCOCC4)nc32)C1` (configuration not stated), the IC50 is below 1 µM. Next, `CCC(C)n1cnc2c(-c3cncnc3)nc(N3CCOCC3)nc21` (configuration not stated): below 1 µM. Compound `CC(C)Cn1cnc2c(-c3cccc4[nH]ccc34)nc(N3CCOCC3)nc21` registered an IC50 below 1 µM.

The compound `CCC(C)n1c(-c2ccccc2)nc2c(-c3cccc(O)c3)nc(N3CCOCC3)nc21` (configuration not stated) returned an IC50 below 1 µM. To `Oc1cccc(-c2nc(N3CCOCC3)nc3c2ncn3Cc2cccc(F)c2)c1` belongs below 1 µM.
